Laboratory results published in US20250144051A1, “Colchicine for Treating Connective Tissue Disorders” (Khan Sciences, Inc., priority 2023, published 2025).

How the values were obtained:
IL-33 = assay: In vitro tendinopathy model, IL-33 in tenocyte supernatant (MSD multiplex); assay type: cell-based, human; design: IL-33, % of negative control / reduction of IL-33 levels compared to negative control: concentration or dose not given beside the values
Method: (§1) In Vitro Tendinopathy Model: The below experiment was conducted on an in vitro tendinopathy model. Cells derived from human tendons (tenocytes) can serve as an in vitro model of tendons. See Miller et al., “MicroRNA29a regulates IL-33-mediated tissue remodelling in tendon disease.” Nat Commun 6, 6774 (2015). Cultured tenocytes can be used to investigate the effects of pro-inflammatory cytokines upon the most basic elements of tendon structure. See Ellis et al., “Defining the profile: Characterizing cytokines in tendon injury to improve clinical therapy.” Journal of Immunology and Regenerative Medicine 16, 100059 (2022). When a tendon is injured, it triggers a local inflammatory response that involves immune cell infiltration and the expression of pro-inflammatory mediators. This inflammatory environment can modify tenocyte physiology, causing them to become activated and pro-inflammatory. Exposing the tenocytes to the pro-inflammatory cytokines TNF-α and IL-1β can mimic the effects of tendon injury. See Smith et al., “Tumour necrosis factor alpha, interleukin 1 beta and interferon gamma have detrimental effects on equine tenocytes that cannot be rescued by IL-1RA or mesenchymal stromal cell-derived factors.” Cell Tissue Res 391, 523-544 (2023).
(§2) Cell Culture System. Immortalized, healthy, commercially-sourced human tenocyte cells (donor, patellar tendon) were reconstituted, seeded in T-75 flasks coated with bovine collagen I, and were maintained in Tenocyte Growth Medium supplemented with Tenocyte Growth Supplement, FBS, and penicillin/streptomycin. Culture conditions were maintained at 37° C. in a humidified 5% CO2 atmosphere. Cells were seeded at a density of 100,000 cells/well in commercially-sourced 24-well plates that were pre-coated with rat tail tendon collagen I.
(§3) Treatment Protocol. This study was designed to follow the time-course of collagen production after cytokine exposure to mimic the effects of tendon injury. The time variable was cytokine exposure time (6 hours, 1 day, 3 days, and 5 days). Each of these cytokine exposure time periods was followed by a 24-hour drug treatment period. Inflammatory conditions were induced using a combination of IL-1β (1 nM; 17 ng/ml) and TNF-α (10 ng/ml). Two therapeutic interventions were evaluated. The treatment designated as “treatment A” was colchicine (2 nM). The treatment designated as “treatment B” was colchicine (2 nM) plus pyridoxine (100 μM).
(§4) Experimental Groups. The treatment groups were as follows: (1) exposed to inflammatory cytokines plus treatment A; (2) exposed to inflammatory cytokines plus treatment B; (3) exposed to inflammatory cytokines (negative control, no drug). Further reference control groups were as follows: (A) treatment A without inflammatory cytokine exposure (drug-only control); (B) treatment B without inflammatory cytokine exposure (drug-only control); (C) healthy control (no inflammatory cytokines, no drug treatment).
(§5) Sample Collection Times. Samples were collected at the following timepoints after initiation of cytokine exposure: • 6-hour samples: Collection at 30 hours (6 hr cytokine exposure+24 hr drug treatment) • 1-day samples: Collection at 48 hours (24 hr cytokine exposure+24 hr drug treatment) • 3-day samples: Collection at 96 hours (72 hr cytokine exposure+24 hr drug treatment) • 5-day samples: Collection at 144 hours (120 hr cytokine exposure+24 hr drug treatment, cell culture medium replenished on day-3)
(§6) Assays Used. Collagen I (human) content was measured using enzyme-linked immunosorbent assay (ELISA) in cell culture supernatants. TGF-β1 in cell culture supernatants were measured using the MSD multiplex platform. Other inflammatory cytokines in cell culture supernatants were measured using the MSD multiplex platform.

VEGF = assay: In vitro tendinopathy model, VEGF in tenocyte supernatant (MSD multiplex); assay type: cell-based, human; design: VEGF, % of negative control / increase of VEGF levels compared to negative control: concentration or dose not given beside the values
Method: as §1, §2, §3, §4, §5, §6

[1] = tested on: patient with bilateral upper extremity tendonitis (repetitive strain injury); assay: Experimental clinical trial of oral colchicine in one patient with tendonitis; assay type: in vivo, human
Method: An experimental trial was conducted on a patient, who was a person with bilateral upper extremity tendonitis for 7 months duration. The symptoms at the wrist radiated down to their fingers and up to their elbow. They reported the severity of their symptoms as 5-7 on a 1-10 standard discomfort scale. The cause of their widespread tendonitis was repetitive strain injury.
The patient began treatment with 0.6 mg of colchicine by oral intake once daily. […] With continued daily dosing of colchicine for a total of two weeks duration, symptoms were nearly gone. They were free of symptoms while performing their activities of daily living. At the end of two weeks of treatment, the patient reported reduced severity of symptoms to a level of 2 on a standard 1-10 discomfort scale.
The experimental trial was further extended to observe the effect of discontinuing the colchicine after initially achieving therapeutic success. Upon discontinuing, their tendonitis symptoms gradually returned. After 7 days without treatment, they reported the severity of their symptoms had worsened to 5 on the standard scale. After another 14 days without treatment (21 days cumulative), their symptoms remained at level 5, and occasionally rising to level 6 with increased arm use activity.

IL-6 = assay: In vitro tendinopathy model, IL-6 in tenocyte supernatant (MSD multiplex); assay type: cell-based, human
Method: as §1, §2, §3, §4, §5, §6

TNF-α = assay: In vitro tendinopathy model, TNF-α in tenocyte supernatant (MSD multiplex); assay type: cell-based, human
Method: as §1, §2, §3, §4, §5, §6

Collagen I (human) = assay: In vitro tendinopathy model, collagen I ELISA in tenocyte culture supernatant; assay type: cell-based
Method: as §1, §2, §3, §4
Sample Collection Times. […]
as §6

TGF-β1 = assay: In vitro tendinopathy model, TGF-β1 in tenocyte supernatant (MSD multiplex); assay type: cell-based, human
Method: as §1, §2, §3, §4, §5, §6

IFN-γ = assay: In vitro tendinopathy model, IFN-γ in tenocyte supernatant (MSD multiplex); assay type: cell-based, human; design: IFN-γ, % of negative control / reduction of IFN-γ levels compared to negative control: concentration or dose not given beside the values
Method: as §1, §2, §3, §4, §5, §6

[2] = 6 hr cytokine exposure + 24 hr drug treatment
[3] = 1 day cytokine exposure + 24 hr drug treatment
[4] = 3 days cytokine exposure + 24 hr drug treatment
[5] = 5 days cytokine exposure + 24 hr drug treatment

## COc1cc2c(c(OC)c1OC)-c1ccc(OC)c(=O)cc1[C@@H](NC(C)=O)CC2 [Treatment A, colchicine]
IL-33; [2]
  IL-33, % of healthy level: 113.6%
  IL-33, % of negative control: 55.0%
IL-33; 6 hr cytokine exposure + 24 hr drug treatment, negative control 18.0 pg/mL
  IL-33 level: 9.9 pg/mL
IL-33; [3]
  IL-33, % of healthy level: 128.1%
  IL-33, % of negative control: 85.1%
IL-33; 1 day cytokine exposure + 24 hr drug treatment, negative control 13.1 pg/mL
  IL-33 level: 11.2 pg/mL
IL-33; [4]
  IL-33, % of healthy level: 87.1%
  IL-33, % of negative control: 70.8%
IL-33; 3 days cytokine exposure + 24 hr drug treatment, negative control 10.7 pg/mL
  IL-33 level: 7.6 pg/mL
IL-33; [5]
  IL-33, % of healthy level: 167.4%
  IL-33, % of negative control: 85.4%
IL-33; 5 days cytokine exposure + 24 hr drug treatment, negative control 17.1 pg/ml
  IL-33 level: 14.6 pg/mL
IL-33; at 6 hours
  reduction of IL-33 levels compared to negative control: 45%
IL-33; drug alone, without inflammatory cytokines, healthy control 8.7 pg/mL
  IL-33 level: 3.4 pg/mL
VEGF; [2]
  VEGF, % of healthy level: 263.2%
  VEGF, % of negative control: 157.0%
VEGF; 6 hr cytokine exposure + 24 hr drug treatment, negative control 333.6 pg/mL
  VEGF level: 523.8 pg/mL
VEGF; [3]
  VEGF, % of healthy level: 401.8%
  VEGF, % of negative control: 133.4%
VEGF; 1 day cytokine exposure + 24 hr drug treatment, negative control 599.5 pg/mL
  VEGF level: 799.7 pg/mL
VEGF; [4]
  VEGF, % of healthy level: 314.0%
  VEGF, % of negative control: 112.6%
VEGF; 3 days cytokine exposure + 24 hr drug treatment, negative control 555.0 pg/mL
  VEGF level: 624.9 pg/mL
VEGF; [5]
  VEGF, % of healthy level: 229.0%
  VEGF, % of negative control: 117.9%
VEGF; 5 days cytokine exposure + 24 hr drug treatment, negative control 386.6 pg/mL
  VEGF level: 455.8 pg/mL
VEGF; at 6 hours
  increase of VEGF levels compared to negative control: 57%
VEGF; drug alone, without inflammatory cytokines, healthy control 199.0 pg/mL
  VEGF level: 621.7 pg/mL
[1]; 0.6 mg oral once daily, by the second day of treatment
  tendonitis symptoms: began to improve
[1]; 0.6 mg oral once daily, end of two weeks of treatment, before treatment 5-7
  severity of symptoms on standard 1-10 discomfort scale: 2
[1]; 0.6 mg oral once daily, total of two weeks duration
  tendonitis symptoms: nearly gone
[1]; 7 days without treatment after discontinuing colchicine
  severity of symptoms on standard 1-10 discomfort scale: 5
[1]; 21 days cumulative without treatment after discontinuing colchicine
  severity of symptoms on standard 1-10 discomfort scale: 5
IL-6; [2]
  IL-6, % of healthy level: 873.4%
  IL-6, % of negative control: 185.1%
IL-6; 6 hr cytokine exposure + 24 hr drug treatment, negative control 1614.8 pg/mL
  IL-6 level: 2989.5 pg/mL
IL-6; [3]
  IL-6, % of healthy level: 617.8%
  IL-6, % of negative control: 122.5%
IL-6; 1 day cytokine exposure + 24 hr drug treatment, negative control 1726.6 pg/mL
  IL-6 level: 2114.9 pg/mL
IL-6; [4]
  IL-6, % of healthy level: 397.3%
  IL-6, % of negative control: 127.5%
IL-6; 3 days cytokine exposure + 24 hr drug treatment, negative control 1067.0 pg/mL
  IL-6 level: 1360.1 pg/mL
IL-6; [5]
  IL-6, % of healthy level: 207.0%
  IL-6, % of negative control: 101.7%
IL-6; 5 days cytokine exposure + 24 hr drug treatment, negative control 696.6 pg/mL
  IL-6 level: 708.5 pg/mL
IL-6; drug alone, without inflammatory cytokines, healthy control 342.3 pg/mL
  IL-6 level: 73.7 pg/mL
TNF-α; [2]
  TNF-α, % of healthy level: 926.9%
  TNF-α, % of negative control: 116.7%
TNF-α; 6 hr cytokine exposure + 24 hr drug treatment, negative control 1678.4 pg/mL
  TNF-α level: 1958.4 pg/mL
TNF-α; [3]
  TNF-α, % of healthy level: 806.3%
  TNF-α, % of negative control: 129.3%
TNF-α; 1 day cytokine exposure + 24 hr drug treatment, negative control 1317.2 pg/mL
  TNF-α level: 1703.5 pg/mL
TNF-α; [4]
  TNF-α, % of healthy level: 617.0%
  TNF-α, % of negative control: 135.8%
TNF-α; 3 days cytokine exposure + 24 hr drug treatment, negative control 960.1 pg/mL
  TNF-α level: 1303.6 pg/mL
TNF-α; [5]
  TNF-α, % of healthy level: 424.1%
  TNF-α, % of negative control: 108.7%
TNF-α; 5 days cytokine exposure + 24 hr drug treatment, negative control 824.1 pg/mL
  TNF-α level: 895.9 pg/mL
TNF-α; drug alone, without inflammatory cytokines, healthy control 211.3 pg/mL
  TNF-α level: 1.1 pg/mL
Collagen I (human); 6 hr IL-1β + TNF-α exposure + 24 hr drug treatment, negative control 24 ng/mL
  collagen I level: 20 ng/mL
Collagen I (human); 1 day IL-1β + TNF-α exposure + 24 hr drug treatment, negative control 20 ng/ml
  collagen I level: 19 ng/mL
Collagen I (human); 3 days IL-1β + TNF-α exposure + 24 hr drug treatment, negative control 23 ng/ml
  collagen I level: 21 ng/mL
Collagen I (human); 5 days IL-1β + TNF-α exposure + 24 hr drug treatment, negative control 28 ng/ml
  collagen I level: 28 ng/mL
Collagen I (human); drug alone, without inflammatory cytokines, healthy control 30 ng/ml
  collagen I level: 17 ng/mL
TGF-β1; [2]
  TGF-β1, % of negative control: 127%
TGF-β1; 6 hr cytokine exposure + 24 hr drug treatment, negative control 0.97 ng/ml
  TGF-β1 level: 1.23 ng/mL
TGF-β1; [3]
  TGF-β1, % of negative control: 104%
TGF-β1; 1 day cytokine exposure + 24 hr drug treatment, negative control 1.22 ng/ml
  TGF-β1 level: 1.28 ng/mL
TGF-β1; [4]
  TGF-β1, % of healthy baseline: 112%
  TGF-β1, % of negative control: 114%
TGF-β1; 3 days cytokine exposure + 24 hr drug treatment, negative control 1.70 ng/ml
  TGF-β1 level: 1.94 ng/mL
TGF-β1; [5]
  TGF-β1, % of negative control: 108%
TGF-β1; 5 days cytokine exposure + 24 hr drug treatment, negative control 1.22 ng/mL
  TGF-β1 level: 1.32 ng/mL
TGF-β1; drug alone, without inflammatory cytokines, healthy control 1.73 ng/ml
  TGF-β1 level: 1.90 ng/mL
TGF-β1; drug-only control, without inflammatory cytokines
  TGF-β1, % of healthy baseline: 110%
IFN-γ; 6-hour timepoint
  reduction of IFN-γ levels compared to negative control: 28.4%
IFN-γ; [2]
  IFN-γ, % of healthy level: 154.5%
  IFN-γ, % of negative control: 71.6%
IFN-γ; 6 hr cytokine exposure + 24 hr drug treatment, negative control 17.6 pg/ml
  IFN-γ level: 12.6 pg/mL
IFN-γ; [3]
  IFN-γ, % of healthy level: 186.9%
  IFN-γ, % of negative control: 98.0%
IFN-γ; 1 day cytokine exposure + 24 hr drug treatment, negative control 15.6 pg/ml
  IFN-γ level: 15.3 pg/mL
IFN-γ; [4]
  IFN-γ, % of healthy level: 112.1%
  IFN-γ, % of negative control: 72.4%
IFN-γ; 3 days cytokine exposure + 24 hr drug treatment, negative control 12.7 pg/mL
  IFN-γ level: 9.2 pg/mL
IFN-γ; [5]
  IFN-γ, % of healthy level: 160.7%
  IFN-γ, % of negative control: 80.7%
IFN-γ; 5 days cytokine exposure + 24 hr drug treatment, negative control 16.3 pg/mL
  IFN-γ level: 13.1 pg/mL
IFN-γ; drug alone, without inflammatory cytokines, healthy control 8.2 pg/mL
  IFN-γ level: 3.1 pg/mL
